ChEMBL document CHEMBL1909046, “DrugMatrix in vitro pharmacology data”

Assays:
[1] = target: Tyrosine-protein kinase Fyn (Homo sapiens, UniProt P06241); experiment: biochemical; type: cell-based, Insect cells; details: insect cells;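 note: enzymatic inhibition of Fyn kinase activity measured with Poly(Glu:Tyr) as the phosphorylation substrate; in other assays of this panel Not Active means under 50% inhibition at 10 µM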
Cytochrome P450 2E1 = Cytochrome P450 2E1 (Homo sapiens, UniProt P05181); details: bti-tn-5b1-4; note: in other assays of this panel Not Active means under 50% inhibition at 10 µM
[2] = target: T1, Receptor-type tyrosine-protein phosphatase C (Homo sapiens, UniProt P08575); parameters: species or system Escherichia coli;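 note: inhibition of CD45 enzyme activity measured using DiFMUP as substrate; in other assays of this panel Not Active means under 50% inhibition at 10 µM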
T1 sequence (P08575 whole entry): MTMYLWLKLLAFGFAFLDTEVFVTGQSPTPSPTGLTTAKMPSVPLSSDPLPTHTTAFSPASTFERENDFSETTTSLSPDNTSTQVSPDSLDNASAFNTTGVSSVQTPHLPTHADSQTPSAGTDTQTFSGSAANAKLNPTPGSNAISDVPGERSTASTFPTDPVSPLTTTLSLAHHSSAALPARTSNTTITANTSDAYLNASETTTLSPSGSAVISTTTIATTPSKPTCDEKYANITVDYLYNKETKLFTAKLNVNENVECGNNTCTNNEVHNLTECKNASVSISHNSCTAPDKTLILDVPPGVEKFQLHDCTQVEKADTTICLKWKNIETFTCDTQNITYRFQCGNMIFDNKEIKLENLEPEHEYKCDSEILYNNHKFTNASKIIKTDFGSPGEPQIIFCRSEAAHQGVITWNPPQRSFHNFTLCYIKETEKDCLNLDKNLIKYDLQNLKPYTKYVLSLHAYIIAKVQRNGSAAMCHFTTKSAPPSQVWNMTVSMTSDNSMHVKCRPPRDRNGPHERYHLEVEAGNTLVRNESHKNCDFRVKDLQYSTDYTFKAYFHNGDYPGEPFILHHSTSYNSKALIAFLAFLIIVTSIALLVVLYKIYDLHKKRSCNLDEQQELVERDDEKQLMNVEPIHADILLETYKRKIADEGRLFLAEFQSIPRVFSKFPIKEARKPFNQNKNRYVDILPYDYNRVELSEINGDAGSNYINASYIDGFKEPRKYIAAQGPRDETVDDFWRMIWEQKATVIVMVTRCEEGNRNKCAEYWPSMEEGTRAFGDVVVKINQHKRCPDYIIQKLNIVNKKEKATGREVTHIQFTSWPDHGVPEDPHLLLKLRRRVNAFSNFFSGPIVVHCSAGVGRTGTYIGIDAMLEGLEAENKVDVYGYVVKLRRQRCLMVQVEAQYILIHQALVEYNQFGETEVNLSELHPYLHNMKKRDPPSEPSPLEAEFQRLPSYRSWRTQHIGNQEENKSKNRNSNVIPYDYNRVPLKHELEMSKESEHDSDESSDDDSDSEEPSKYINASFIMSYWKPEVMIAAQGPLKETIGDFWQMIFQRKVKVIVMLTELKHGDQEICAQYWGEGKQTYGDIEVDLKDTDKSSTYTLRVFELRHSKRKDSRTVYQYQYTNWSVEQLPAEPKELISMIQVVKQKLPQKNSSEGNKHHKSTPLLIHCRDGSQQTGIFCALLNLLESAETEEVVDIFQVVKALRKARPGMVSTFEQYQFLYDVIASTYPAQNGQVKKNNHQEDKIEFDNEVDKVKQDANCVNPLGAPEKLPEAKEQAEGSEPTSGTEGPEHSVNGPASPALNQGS

[3] = target: Protein kinase C alpha type (Homo sapiens, UniProt P17252); type: cell-based; details: sf9;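 note: inhibition of PKCalpha kinase activity measured in an enzyme assay with histone as the phosphorylation substrate; in other assays of this panel Not Active means under 50% inhibition at 10 µM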
[4] = DRUGMATRIX: GABAA, Chloride Channel, TBOB radioligand binding (ligand: [3H] TBOB); type: cell membranes, Rattus norvegicus, Wistar, Cerebral cortex, Membrane; details: Not Active = under 50% inhibition at 10 µM
Calcitonin receptor = target: T2, Calcitonin receptor (Homo sapiens, UniProt P30988); type: cell membranes, Membrane; details: t47d; note: in other assays of this panel Not Active means under 50% inhibition at 10 µM
T2 sequence (P30988 whole entry): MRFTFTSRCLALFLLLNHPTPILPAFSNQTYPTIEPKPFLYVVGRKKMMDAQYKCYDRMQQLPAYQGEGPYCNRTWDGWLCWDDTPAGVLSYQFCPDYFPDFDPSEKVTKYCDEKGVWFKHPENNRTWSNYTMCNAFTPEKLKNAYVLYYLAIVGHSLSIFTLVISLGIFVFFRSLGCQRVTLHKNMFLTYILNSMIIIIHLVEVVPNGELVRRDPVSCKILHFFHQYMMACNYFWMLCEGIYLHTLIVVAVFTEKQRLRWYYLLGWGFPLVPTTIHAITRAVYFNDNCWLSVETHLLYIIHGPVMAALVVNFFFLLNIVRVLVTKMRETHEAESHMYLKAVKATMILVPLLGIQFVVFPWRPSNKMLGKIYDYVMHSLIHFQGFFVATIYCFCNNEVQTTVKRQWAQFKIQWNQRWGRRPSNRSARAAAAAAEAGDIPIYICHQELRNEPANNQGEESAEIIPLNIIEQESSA

[5] = target: Sigma non-opioid intracellular receptor 1 (Homo sapiens, UniProt Q99720); experiment: DRUGMATRIX: Sigma1 radioligand binding (ligand: [3H] Haloperidol); type: cell membranes, Jurkat, Membrane; details: jurkat; Not Active = under 50% inhibition at 10 µM
Chain of Sigma non-opioid intracellular receptor 1 (Q99720 whole entry): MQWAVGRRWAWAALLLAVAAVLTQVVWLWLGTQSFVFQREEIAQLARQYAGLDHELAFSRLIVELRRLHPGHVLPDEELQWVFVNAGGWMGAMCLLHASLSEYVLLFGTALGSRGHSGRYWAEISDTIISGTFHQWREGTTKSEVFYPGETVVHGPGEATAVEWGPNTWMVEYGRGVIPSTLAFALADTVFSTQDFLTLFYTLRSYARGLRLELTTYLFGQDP

Chain of Cytochrome P450 2E1 (P05181 whole entry): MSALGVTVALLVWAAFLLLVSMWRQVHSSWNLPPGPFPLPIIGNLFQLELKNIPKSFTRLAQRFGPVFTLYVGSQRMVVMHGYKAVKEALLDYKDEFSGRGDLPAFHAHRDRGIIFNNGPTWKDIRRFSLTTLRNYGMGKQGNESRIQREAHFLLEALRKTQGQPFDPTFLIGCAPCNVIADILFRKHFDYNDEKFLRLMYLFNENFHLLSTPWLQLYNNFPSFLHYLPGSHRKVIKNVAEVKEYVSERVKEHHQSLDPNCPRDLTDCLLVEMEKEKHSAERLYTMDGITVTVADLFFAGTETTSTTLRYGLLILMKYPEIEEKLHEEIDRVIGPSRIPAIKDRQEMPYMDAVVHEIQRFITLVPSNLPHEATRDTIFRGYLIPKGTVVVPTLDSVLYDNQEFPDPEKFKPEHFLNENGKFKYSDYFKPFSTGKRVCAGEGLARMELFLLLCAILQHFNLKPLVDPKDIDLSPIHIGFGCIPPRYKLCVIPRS
Chain of Tyrosine-protein kinase Fyn (P06241 whole entry): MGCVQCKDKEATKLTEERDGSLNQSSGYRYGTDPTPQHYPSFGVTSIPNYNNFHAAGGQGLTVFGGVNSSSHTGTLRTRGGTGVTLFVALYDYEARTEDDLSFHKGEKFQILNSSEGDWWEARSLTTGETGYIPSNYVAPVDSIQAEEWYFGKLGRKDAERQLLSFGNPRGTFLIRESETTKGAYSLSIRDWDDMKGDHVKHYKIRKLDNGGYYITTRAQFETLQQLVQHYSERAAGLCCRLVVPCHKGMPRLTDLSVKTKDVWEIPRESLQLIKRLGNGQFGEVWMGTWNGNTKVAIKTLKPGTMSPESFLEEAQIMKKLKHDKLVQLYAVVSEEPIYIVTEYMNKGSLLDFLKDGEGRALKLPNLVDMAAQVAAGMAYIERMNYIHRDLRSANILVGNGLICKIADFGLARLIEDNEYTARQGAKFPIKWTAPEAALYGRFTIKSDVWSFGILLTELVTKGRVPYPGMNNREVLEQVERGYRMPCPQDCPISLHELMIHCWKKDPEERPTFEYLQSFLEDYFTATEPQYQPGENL

Nc1cc(N2CCCCC2)nc(N)[n+]1[O-] [MINOXIDIL]
Not Active: IC50 [1] | IC50 (Cytochrome P450 2E1) | Ki (Cytochrome P450 2E1) | IC50 [2] | IC50 [3] | IC50 [4] | Ki [4] | IC50 (Calcitonin receptor) | IC50 [5]

CO[C@H]1/C=C/O[C@@]2(C)Oc3c(C)c(O)c4c(O)c(c(/C=N/N5CCN(C6CCCC6)CC5)c(O)c4c3C2=O)NC(=O)/C(C)=C\C=C\[C@H](C)[C@H](O)[C@@H](C)[C@@H](O)[C@@H](C)[C@H](OC(C)=O)[C@@H]1C [RIFAPENTINE]
Not Active: IC50 [1] | IC50 (Cytochrome P450 2E1) | Ki (Cytochrome P450 2E1) | IC50 [2] | IC50 [3] | IC50 [4] | Ki [4] | IC50 (Calcitonin receptor) | IC50 [5]

Cc1cccc(C)c1OCC(C)N (centres undefined) [MEXILETINE]
Not Active: IC50 [1] | IC50 (Cytochrome P450 2E1) | Ki (Cytochrome P450 2E1) | IC50 [2] | IC50 [3] | IC50 [4] | Ki [4] | IC50 (Calcitonin receptor) | IC50 [5]

COc1c2occc2cc2ccc(=O)oc12 [METHOXSALEN]
Not Active: IC50 [1] | IC50 (Cytochrome P450 2E1) | Ki (Cytochrome P450 2E1) | IC50 [2] | IC50 [3] | IC50 [4] | Ki [4] | IC50 (Calcitonin receptor) | IC50 [5]

C[C@H]1C[C@@H]2[C@H]([C@@H](O)C[C@@]3(C)[C@H]2CC[C@]3(O)C(=O)CO)[C@@]2(C)C=CC(=O)C=C12 [METHYLPREDNISOLONE]
Not Active: IC50 [1] | IC50 (Cytochrome P450 2E1) | Ki (Cytochrome P450 2E1) | IC50 [2] | IC50 [3] | IC50 [4] | Ki [4] | IC50 (Calcitonin receptor) | IC50 [5]

COc1cc2nc(N3CCN(C(=O)C4CCCO4)CC3)nc(N)c2cc1OC (centres undefined) [TERAZOSIN]
Not Active: IC50 [1] | IC50 (Cytochrome P450 2E1) | Ki (Cytochrome P450 2E1) | IC50 [2] | IC50 [3] | IC50 [4] | Ki [4] | IC50 (Calcitonin receptor) | IC50 [5]

CC(c1cc2ccccc2s1)N(O)C(N)=O (centres undefined) [ZILEUTON]
Not Active: IC50 [1] | IC50 (Cytochrome P450 2E1) | Ki (Cytochrome P450 2E1) | IC50 [2] | IC50 [3] | IC50 [4] | Ki [4] | IC50 (Calcitonin receptor) | IC50 [5]

O=C1C(CC[S+]([O-])c2ccccc2)C(=O)N(c2ccccc2)N1c1ccccc1 (centres undefined) [SULFINPYRAZONE]
Not Active: IC50 [1] | IC50 (Cytochrome P450 2E1) | Ki (Cytochrome P450 2E1) | IC50 [2] | IC50 [3] | IC50 [4] | Ki [4] | IC50 (Calcitonin receptor) | IC50 [5]

CCN1CCC[C@H]1CNC(=O)c1cc(S(N)(=O)=O)ccc1OC [LEVOSULPIRIDE]
Not Active: IC50 [1] | IC50 (Cytochrome P450 2E1) | Ki (Cytochrome P450 2E1) | IC50 [2] | IC50 [3] | IC50 [4] | Ki [4] | IC50 (Calcitonin receptor) | IC50 [5]

CCN(CC)CCNC(=O)c1cc(S(C)(=O)=O)ccc1OC [TIAPRIDE]
Not Active: IC50 [1] | IC50 (Cytochrome P450 2E1) | Ki (Cytochrome P450 2E1) | IC50 [2] | IC50 [3] | IC50 [4] | Ki [4] | IC50 (Calcitonin receptor) | IC50 [5]

CCCCOc1cc(CC2CNC(=O)N2)ccc1OC (centres undefined) [RO-201724]
Not Active: IC50 [1] | IC50 (Cytochrome P450 2E1) | Ki (Cytochrome P450 2E1) | IC50 [2] | IC50 [3] | IC50 [4] | Ki [4] | IC50 (Calcitonin receptor) | IC50 [5]
